Consider 14 compounds from US10828315B2 (Madrigal Pharmaceuticals, Inc., priority 2013, dated 2020).

Data set [1] in a line: Retention of docetaxel SDC-TRAPs in plasma and tumor (Example 53). To be noted: dosed SDC-TRAP-0426 25 mg/10 mL/kg IV, DRD, Table 4. The format is in vivo, Female SCID Mouse (H1975).
Protocol: Blood samples (˜300 μL) were collected by cardiac puncture and immediately centrifuged at 6000 rpm for 8 minutes at approximately 4° C. Resulting plasma samples (˜150 μL) were stored at −80° C. until analysis.
Following sacrifice, tumors were immediately dissected on ice, flash frozen in liquid N2, and stored at −80° C. until analysis.
To 55 μL of plasma samples, 200 μL of methanol containing 150-250 ng/mL internal standard(s) was added. Samples were vortex mixed for approximately 1.5 minutes at ambient temperature and then centrifuged at 4400 rpm for 10 mm at approximately 4° C. The resulting supernatants (175 μL) were transferred to a 96-well plate and dried under nitrogen at 40° C. Dried samples were reconstituted with 100 μL 50/50 (v/v) water/methanol, vortex mixed and 10 μL were injected into LC-MS/MS.
Tumor samples were weighed and homogenized in 5 volume of ice-cold phosphate buffered saline on ice using a hand-held homogenizer. To 55 μL of tumor homogenate samples, 200 μL of methanol containing 150-250 ng/mL internal standard(s) was added. Samples were vortex mixed for approximately 1.5 minutes at ambient temperature and then centrifuged at 4400 rpm for 10 min at approximately 4° C. The resulting supernatants (175 μL) were transferred to a 96-well plate and dried under nitrogen at 40° C. Dried samples were reconstituted with 100 μL 50/50 (v/v) water/methanol, vortex mixed and 10 μL were injected into LC-MS/MS.
Plasma and tumor samples were analyzed by LC-MS/MS using an Agilent 1100 HPLC (Agilent Technologies, Santa Clara, Calif.) interfaced to an API 4000 tandem mass spectrometer (Applied Biosystems, Foster City, Calif.). […] The flow rate was 0.5 mL/min. […] Quantitation for each analyte was done by extrapolation from a standard curve ranging from 2.50 to 50000 nM with 1/x^2 weighting.
Blood samples (˜300 μL) were collected by cardiac puncture and immediately centrifuged at 6000 rpm for 8 minutes at approximately 4° C. Resulting plasma samples (˜150 μL) were transferred to Eppendorf tubes containing approximately 5-10 mg of NaF, vortex mixed, and stored at −80° C. until analysis.
Following sacrifice tumors were immediately dissected on ice, flash frozen in liquid N2, and stored at −80° C. until analysis.
To 60 μL of plasma samples, 25 μL of 75/25 (v/v) water/acetonitrile containing 100 ng/mL internal standard(s) and 200 μL of acetonitrile were added. Samples were vortex mixed for approximately 2 minutes at ambient temperature and then centrifuged at 4400 rpm for 10 min at approximately 4° C. The resulting supernatants (300 μL) were transferred to a 96-well plate and dried under nitrogen at 40° C. Dried samples were reconstituted with 500 μL 60/40 (v/v) water/acetonitrile, vortex mixed and 10 μL were injected into LC-MS/MS.
Tumor samples were weighed and homogenized in 3 volume of ice-cold phosphate buffered saline on ice using a hand-held homogenizer. To 60 μL of tumor homogenate samples, 25 μL of 75/25 (v/v) water/acetonitrile containing 100 ng/mL internal standard(s) and 200 μL of acetonitrile were added. […] The resulting supernatants (200 μL) were transferred to a 96-well plate and dried under nitrogen at 40° C. Dried samples were reconstituted with 600 μL 60/40 (v/v) water/acetonitrile, vortex mixed and 10 μL were injected into LC-MS/MS.
Plasma and tumor samples were analyzed by LC-MS/MS using an Agilent 1100 HPLC (Agilent Technologies, Santa Clara, Calif.) interfaced to an API 4000 tandem mass spectrometer (Applied Biosystems, Foster City, Calif.). The separation of analytes were performed on a Symmetry Shield Sum C18 (2.1×100 mm; 100 Å) column (Waters, Milford, Mass.) with a run time of 5.0 mm per sample using the mobile phase consisted of 0.1% formic acid (A) and acetonitrile containing 0.1% formic acid (B). […] Quantitation for each analyte was done by extrapolation from a standard curve ranging from 1.00 to 25000 ng/mL with 1/x^2 weighting.
The conditions of data set [2]: mouse, plasma, 1 h.
The conditions of data set [3]: female, SCID, mouse, in vivo.
Protocol: Using the 10 mM stock solutions of the SDC-TRAP molecule and its Hsp90i binding moiety and effector moiety in DMSO, spiking solutions were prepared at 0.025, 0.05, 0.1, 0.5, 1, 5, 10, 50, 100, 250, and 500 μM in DMSO. 5 μL of each spiking solution was added to a 96-deep well plate.
Quality control standards were prepared from 5 μL of 0.1, 1, and 10 μM calibration standard spiking solution added in triplicate into 96-deep well plate and adding 50 μL of matrix (plasma or homogenized tumor).
To prepare test samples, test plasma was diluted as needed using blank plasma.
Tumor samples were pulverized in liquid nitrogen, weighed, and homogenized in PBS at 5× volume to sample weight. 50 μL of unknown plasma or homogenized tumor sample was mixed with 5 μL of DMSO. The samples were extracted by precipitating calibration standards, QC standards, and unknown samples with 200 μL of internal standard solution. The samples were mixed by vortex at room temperature for approximately 1.5 minutes, then centrifuge at 2-8° C. 150 μL of supernatant was collected and 25 μL of water added. Samples were mixed and analyzed by LC-MS/MS.
Samples of plasma, heart and tumor were excised from a euthanized mouse, homogenized in PBS at 5 times tissue weight and diluted in 5 μL DMSO/50 μL sample. Prior to analysis, 55 μL samples and calibration standards were precipitated in 200 μL methanol in 96-well plates. Samples were mixed on a vortex mixer for 1.5 minutes at 1500 rpm at room temperature, then centrifuged at 4400 rpm for 10 minutes at 8° C. 150 μL of each supernatant was transferred to a well of a new 96-well plate, and 25 μL of water was added and mixed with the sample. […] For the analysis of samples from female SCID mice, a gradient of solvent A (water/0.1% formic acid) and B (acetonitrile/0.1% formic acid) was used as in Table 2 below.
Various SDC-TRAP molecules and appropriate controls were administered to mice and after various time points the plasma and tumor concentration of these molecules was determined.

SMILES strings stand for the structures. Read-outs that look alike come from different tables or passages of the source.

Turning to `CC(=O)O[C@@]12CO[C@@H]1C[C@H](O)[C@@]1(C)C(=O)[C@H](O)C3=C(C)[C@@H](OC(=O)[C@H](OC(=O)CCC(=O)N4CCC(N5CCC(CCn6ccc7cc(-n8c(O)nnc8-c8cc(C(C)C)c(O)cc8O)ccc76)CC5)CC4)[C@@H](NC(=O)OC(C)(C)C)c4ccccc4)C[C@@](O)([C@@H](OC(=O)c4ccccc4)[C@H]21)C3(C)C` [SDC-TRAP-0426], in data set [1] (female, SCID, mouse, in vivo, of analyte at 6 h, read-out: Plasma Conc.), the concentration at 6 h was found to be 31.1 nM. Besides, the concentration at 24 h in data set [1] (female, SCID, mouse, in vivo, of analyte at 24 h, read-out: Plasma Conc.) was 11.1 nM. Also, the results for the “Tumor Conc.” value in data set [1] (of analyte at 6 h), in data set [1] (of analyte at 24 h) and in data set [1] (of analyte at 48 h) were 0.375 nmol/g of tissue, 0.256 nmol/g of tissue and 0.337 nmol/g of tissue, respectively. The “Plasma Conc.” value in data set [1] (of analyte at 48 h) was “BQL”.
In the case of `CCNC(=O)c1nnc(-c2cc(C(C)C)c(O)cc2O)n1-c1ccc(CN2CCC(C(=O)N(C)CCCOC(=O)Nc3cccc4c3CN(C3CCC(=O)NC3=O)C4=O)CC2)cc1` (centres unmarked) [SDC-TRAP-0231, 3-(1-(4-(3-(2,4-dihydroxy-5-isopropylphenyl)-5-(ethylcarbamoyl)-4H-1,2,4-triazol-4-yl)benzyl)-N-methylpiperidine-4-carboxamido)propyl (2-(2,6-dioxopiperidin-3-yl)-1-oxoisoindolin-4-yl)carbamate], the “% Remaining (1 h, 10 μM)” value in data set [2] (10 μM) is 98.3%.
Consider `CC(C)c1cc(-c2nnc(O)n2-c2ccc(CN3CCN(C(=O)O[C@H]4CC[C@@]5(C)C(=CC[C@@H]6[C@@H]5CC[C@]5(C)C(c7cccnc7)=CC[C@@H]65)C4)CC3)cc2)c(O)cc1O` [SDC-TRAP-0150, (3S,8R,9S,10R,13S,14S)-10,13-dimethyl-17-(pyridin-3-yl)-2,3,4,7,8,9,10,11,12,13,14,15-dodecahydro-1H-cyclopenta[a]phenanthren-3-yl 4-(4-(3-(2,4-dihydroxy-5-isopropylphenyl)-5-hydroxy-4H-1,2,4-triazol-4-yl)benzyl) piperazine-1-carboxylate], for which the “% Remaining (1 h)” value in data set [2] (10 µM) and in data set [2] (10 μM) was 103% throughout.
In the case of `COc1ccc(-c2cnoc2-c2cc(OC)c(OC)c(OC)c2)cc1OC(=O)N1CCN(c2ccc(-n3c(O)nnc3-c3cc(C(C)C)c(O)cc3O)cc2)CC1` [SDC-TRAP-0099, 2-methoxy-5-(5-(3,4,5-trimethoxyphenyl)isoxazol-4-yl)phenyl-4-(4-(3-(2,4-dihydroxy-5-isopropylphenyl)-5-hydroxy-4H-1,2,4-triazol-4-yl)phenyl) piperazine-1-carboxylate], the “% Remaining (1 h)” value in data set [2] (10 µM) came out at 95.2%.
For `CCNC(=O)c1nnc(-c2cc(C(C)C)c(O)cc2O)n1-c1ccc(Oc2ccc(C(=O)NC(Cc3ccccc3)C(=O)Nc3cc(-c4cnoc4-c4cc(OC)c(OC)c(OC)c4)ccc3OC)cc2)cc1` (centres unmarked) [SDC-TRAP-0158], the “% Remaining (1 h)” value in data set [2] (10 µM) is given as 92.7%.
Still for that read-out and setting: in the case of `CCNC(=O)c1nnc(-c2cc(C(C)C)c(O)cc2O)n1-c1ccc(Oc2ccc(C(=O)N[C@@H](CC(C)C)C(=O)Nc3cccc4c3CN(C3CCC(=O)NC3=O)C4=O)cc2)cc1` (stereo partly drawn) [SDC-TRAP-0191, 5-(2,4-dihydroxy-5-isopropylphenyl)-4-(4-(4-(((2S)-1-((2-(2,6-dioxopiperidin-3-yl)-1-oxoisoindolin-4-yl)amino)-4-methyl-1-oxopentan-2-yl)carbamoyl)phenoxy)phenyl)-N-ethyl-4H-1,2,4-triazole-3-carboxamide] it was 77.4%.
With `CC(C)c1cc(-c2nnc(O)n2-c2ccc(CC3CCN(CC(=O)Nc4cccc5c4CN(C4CCC(=O)NC4=O)C5=O)CC3)cc2)c(O)cc1O` (centres unmarked) [SDC-TRAP-0116, 2-(4-(4-(3-(2,4-dihydroxy-5-isopropylphenyl)-5-hydroxy-4H-1,2,4-triazol-4-yl)benzyl)piperidin-1-yl)-N-(2-(2,6-dioxopiperidin-3-yl)-1-oxoisoindolin-4-yl) acetamide], the “Tumor Conc.” value is recorded as 13.7 nmol/g of tissue in data set [3] (1 h); 6.09 nmol/g of tissue in data set [3] (6 h); 2.78 nmol/g of tissue in data set [3] (24 h); 1.46 nmol/g of tissue in data set [3] (48 h); 17.7 nmol/g of tissue in data set [3] ([…]). In data set [2] (10 µM), the “% Remaining (1 h)” value is recorded as 91.1%.
In the case of `CC(C)c1cc(-c2nnc(O)n2-c2ccc(CN3CCN(C(=O)c4ccc(COC(=O)Nc5cccc6c5CN(C5CCC(=O)NC5=O)C6=O)cc4)CC3)c(F)c2)c(O)cc1O` (centres unmarked) [SDC-TRAP-0157, 4-(4-(4-(3-(2,4-dihydroxy-5-isopropylphenyl)-5-hydroxy-4H-1,2,4-triazol-4-yl)-2-fluorobenzyl)piperazine-1-carbonyl)benzyl (2-(2,6-dioxopiperidin-3-yl)-1-oxoisoindolin-4-yl)carbamate], the “% Remaining (1 h)” value in data set [2] (10 µM) is 81.4%.
As for `CCNC(=O)c1nnc(-c2cc(C(C)C)c(O)cc2O)n1-c1ccc(CN2CCC(C(=O)N3CCC[C@H]3C(=O)Nc3cccc4c3CN(C3CCC(=O)NC3=O)C4=O)CC2)cc1` (stereo partly drawn) [SDC-TRAP-0164, 5-(2,4-dihydroxy-5-isopropylphenyl)-4-(4-((4-((2S)-2-((2-(2,6-dioxopiperidin-3-yl)-1-oxoisoindolin-4-yl)carbamoyl)pyrrolidine-1-carbonyl)piperidin-1-yl)methyl)phenyl)-N-ethyl-4H-1,2,4-triazole-3-carboxamide], the “% Remaining (1 h)” value in data set [2] (10 µM) was 98.0%.
As to `CCNC(=O)c1nnc(-c2cc(C(C)C)c(O)cc2O)n1-c1ccc(C(=O)N(C)CC(=O)Nc2cccc3c2CN(C2CCC(=O)NC2=O)C3=O)cc1` (centres unmarked) [SDC-TRAP-0147, 5-(2,4-dihydroxy-5-isopropylphenyl)-4-(4-((2-((2-(2,6-dioxopiperidin-3-yl)-1-oxoisoindolin-4-yl)amino)-2-oxoethyl)(methyl)carbamoyl)phenyl)-N-ethyl-4H-1,2,4-triazole-3-carboxamide], the “% Remaining (1 h)” value in data set [2] (10 µM) is reported as 98.1%.
`CC(C)c1cc(-c2nnc(O)n2-c2ccc(CN3CCN(c4cnc(C(=O)Nc5cccc6c5CN(C5CCC(=O)NC5=O)C6=O)cn4)CC3)c(F)c2)c(O)cc1O` (centres unmarked) [SDC-TRAP-0170, 5-(4-(4-(3-(2,4-dihydroxy-5-isopropylphenyl)-5-hydroxy-4H-1,2,4-triazol-4-yl)-2-fluorobenzyl)piperazin-1-yl)-N-(2-(2,6-dioxopiperidin-3-yl)-1-oxoisoindolin-4-yl)pyrazine-2-carboxamide]: the “% Remaining (1 h)” value in data set [2] (10 µM) is 94.1%.
On the same count and under the same terms, in the case of `CC(C)c1cc(-c2nnc(O)n2-c2ccc(N3CCN(C(=O)c4ccc(COC(=O)Nc5cccc6c5CN(C5CCC(=O)NC5=O)C6=O)cc4)CC3)cc2)c(O)cc1O` (centres unmarked) [SDC-TRAP-0156, 4-(4-(4-(3-(2,4-Dihydroxy-5-isopropylphenyl)-5-hydroxy-4H-1,2,4-triazol-4-yl)phenyl)piperazine-1-carbonyl)benzyl (2-(2,6-dioxopiperidin-3-yl)-1-oxoisoindolin-4-yl)carbamate] it was 90.3%.
As for `CCc1c2c(nc3ccc(O)cc13)-c1cc3c(c(=O)n1C2)COC(=O)C3(CC)OC(=O)N(C)CCCCN1CCN(Cc2ccc(-n3c(O)nnc3-c3cc(C(C)C)c(O)cc3O)cc2)CC1` (centres unmarked) [SDC-TRAP-0055, 4,11-diethyl-9-hydroxy-3,14-dioxo-3,4,12,14-tetrahydro-1H-pyrano[3′,4′:6,7]indolizino[1,2-b]quinolin-4-yl (4-(4-(4-(3-(2,4-dihydroxy-5-isopropylphenyl)-5-hydroxy-4H-1,2,4-triazol-4-yl)benzyl)piperazin-1-yl)butyl)(methyl)carbamate], in data set [2] (10 µM), the “% Remaining (1 h)” value came to 103% and the “% Remaining (1 h, 37° C.)” value is 103%.
Regarding `CC(C)c1cc(-c2nnc(O)n2-c2ccc(CN3CCN(C(=O)COC(=O)Nc4cccc5c4CN(C4CCC(=O)NC4=O)C5=O)CC3)cc2)c(O)cc1O` (centres unmarked) [SDC-TRAP-0121, 2-(4-(4-(3-(2,4-dihydroxy-5-isopropylphenyl)-5-hydroxy-4H-1,2,4-triazol-4-yl)benzyl)piperazin-1-yl)-2-oxoethyl(2-(2,6-dioxopiperidin-3-yl)-1-oxoisoindolin-4-yl)carbamate], the “% Remaining (1 h)” value in data set [2] (10 µM) was 89.1%.
